{"source": "patent US20250320401A1", "about": "“CORROSION INHIBITOR AND RELATED METHODS OF INHIBITING THE CORROSION OF METAL SURFACES” (Schlumberger Technology Corporation, priority 2024, published 2025)", "key": {"mice [1]": {"test_system": "mice", "details": "cited from earlier work"}, "mice [2]": {"test_system": "mice", "experiment": "Acute toxicity, intraperitoneal LD50 in mice", "format": "in vivo", "details": "relative to reuterin", "text": "(§1) Biotechnologically produced 3-HPA and the 3-HPA derivatives, such as the cyclic dimeric form of FIG. 2 and others described herein, have a high potential as a food preservative and within health care. […] See Fernandez-Cruz M. L, Martín-Cabrejas I., Palacio J. P., Gaya P., Díaz-Navarro C., Navas J. M., Medina M., Arques J. L., “In vitro toxicity of reuterin, a potential food biopreservative,” Food and Chemical Toxicology 96, 2016, 155-159. In contrast for acrolein, the median intraperitoneal (i.p.) lethal dose 50 (LD50) was estimated to be 7 mg/kg by weight (bw) for mice. The acute toxicity of diacetyl after i.p. exposure in rats is low (525 mg/kg bw). […] The acute toxicity LD50 oral for propargyl alcohol is 20 mg/kg for rats. See Propargyl alcohol, MSDS, Aldrich-Sigma. Overall, the typical polymerizable corrosion inhibitors, i.e. acrolein and propargyl alcohol are 36 and 12 times respectively more toxic than reuterin."}, "[3]": {"details": "cited from earlier work"}, "[4]": {"experiment": "Corrosion rate by weight loss analysis of steel coupons in inhibited hydrochloric acid", "details": "3.57 mmol, 80° C.", "text": "The corrosion rates were studied by weight loss analysis. The low carbon steel HS80 tubing were cut into coupons of 29±3 cm^2 surface area using a water cooled band saw to minimize any changes in the properties of the metal that may result from heating. After cutting, the coupons were stamped for identification, glass bead blasted and cleaned in acetone to remove any residue from the machining process. The coupons were then dried, placed in plastic bags and stored in airtight jars to prevent contact with humidity or airborne contaminants. The initial surface area of each test coupon was determined by accurate (to four decimal places) measurement of its geometric dimensions.\nThroughout the exposure period, isothermal conditions are maintained (for the present study, the temperature was maintained at 80° C.) and the inhibited acid is continuously stirred using a magnetic stirrer bar. Since the tests were designed to simulate oil well acid stimulation, no effort was made to remove dissolved oxygen from the acid. However, an argon blanket was used to stop any additional intrusion of oxygen during the one hour exposure period. Following each test, the coupons were rinsed in acetone and scrubbed with soap and water to remove residual inhibitor and corrosion deposits. […]"}, "Escherichia coli": {"test_system": "Escherichia coli", "details": "in meat products, milk and cottage cheese; cited from earlier work"}, "Listeria monocytogenes": {"test_system": "Listeria monocytogenes", "details": "in meat products, milk and cottage cheese; cited from earlier work"}, "rats [5]": {"test_system": "rats", "details": "cited from earlier work"}, "rats [6]": {"test_system": "rats", "details": "cited from earlier work", "remark": "listed apart in the source"}, "rats [7]": {"test_system": "rats", "experiment": "Acute toxicity, oral LD50 in rats", "format": "in vivo", "details": "relative to reuterin", "text": "as §1"}}, "data": [{"molecule": "C=CC=O", "note": "[Acrolein]", "values": [{"measurement": "median intraperitoneal (i.p.) lethal dose 50 (LD50)", "setting": "mice [1]", "value": "7 mg/kg by weight (bw)"}, {"measurement": "times more toxic than reuterin", "setting": "mice [2]", "value": 36, "unit": "times"}]}, {"molecule": "O=CCCO", "note": "[3-HPA, 3-Hydroxypropionaldehyde]", "values": [{"measurement": "i.p. LD50", "setting": "[3]; i.p.", "value": "approximately 250 mg/kg bw"}, {"measurement": "toxicity relative to diacetyl", "setting": "[3]; relative to diacetyl", "value": "two times more toxic than diacetyl"}, {"measurement": "inhibition efficiency", "setting": "[4]; 4M HCl", "value": 89, "unit": "%"}, {"measurement": "inhibition efficiency", "setting": "[4]; 28% HCl (so in the source)", "value": 97, "unit": "%"}, {"measurement": "growth inhibition", "setting": "Escherichia coli", "value": "inhibit the growth"}, {"measurement": "growth inhibition", "setting": "Listeria monocytogenes", "value": "inhibit the growth"}]}, {"molecule": "CC(=O)C(C)=O", "note": "[diacetyl]", "values": [{"measurement": "acute toxicity after i.p. exposure", "setting": "rats [5]", "value": 525, "unit": "mg/kg bw"}]}, {"molecule": "C#CCO", "note": "[Propargyl alcohol]", "values": [{"measurement": "acute toxicity LD50 oral", "setting": "rats [6]", "value": 20, "unit": "mg/kg"}, {"measurement": "times more toxic than reuterin", "setting": "rats [7]", "value": 12, "unit": "times"}]}]}
